Measured values taken from patent US8673908B2, “Kynurenine production inhibitor” (Kyowa Hakko Kirin Co., Ltd., priority 2008, dated 2014).

What follows are molecules tested on kynurenine production in IFN-γ-treated KATO-III cells (assay: Inhibitory activity on kynurenine production (Test Example 1)). Conditions: Homo sapiens, IFN-γ treatment, culture for 96 hours, read-out: IC50 value, inhibition of kynurenine production.
Format: cell-based
In short: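 KATO-III human gastric cancer cells (2,000/well, RPMI 1640 + 10% FBS) were cultured with compound and IFN-γ (31.25 ng/mL in the cell suspension), DMSO ≤0.1%, for 96 h at 37 °C, 5% CO2. Kynurenine was read at A480 after TCA at 65 °C and p-dimethylaminobenzaldehyde. Inhibition used IFN-γ-treated and untreated DMSO wells as references.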

`C#CCNS(=O)(=O)Nc1nc2ccccc2nc1OC(c1cccnc1)C(F)(F)F` (stereo not shown) [Compound 274, N-{3-[2,2,2-trifluoro-1-(pyridin-3-yl)ethoxy]quinoxalin-2-yl}-N′-(2-propynyl)-sulfuric diamide] and `CCCNS(=O)(=O)Nc1nc2ccccc2nc1O[C@H](c1cccnc1)C(F)(F)F` [Compound 314, (R)—N-propyl-N′-{3-[2,2,2-trifluoro-1-(pyridin-3-yl)-ethoxy]quinoxalin-2-yl}sulfuric diamide] cannot be ordered by IC50: less than 1 µM for the first, less than 1 µM for the second.

`CCCS(=O)(=O)Nc1nc2ccccc2nc1OC(c1cncs1)C(F)(F)F` (stereo not shown) [Compound 276, N-{3-[2,2,2-trifluoro-1-(thiazol-5-yl)ethoxy]quinoxalin-2-yl}propane-1-sulfonamide] and `CCCNS(=O)(=O)Nc1nc2ccccc2nc1OC(c1cncs1)C(F)(F)F` (stereo not shown) [Compound 281, N-{3-[2,2,2-trifluoro-1-(thiazol-5-yl)ethoxy]quinoxalin-2-yl}-N′-propyl-sulfuric diamide] cannot be ordered by IC50: less than 1 µM for the first, less than 1 µM for the second.

First: CCCS(=O)(=O)Nc1nc2ccccc2nc1OC(c1cncn1C)C(F)(F)F (stereo not shown) [Compound 277, N-{3-[2,2,2-trifluoro-1-(1-methyl-1H-imidazol-5-yl)ethoxy]-quinoxalin-2-yl}propane-1-sulfonamide]
Second: CCCNS(=O)(=O)Nc1nc2ccccc2nc1OC(c1cncn1C)C(F)(F)F (stereo not shown) [Compound 282, N-{3-[2,2,2-trifluoro-1-(1-methyl-1H-imidazol-5-yl)ethoxy]-quinoxalin-2-yl}-N′-propyl-sulfuric diamide]
The IC50 of the first is higher: 1 to 10 µM for the first, less than 1 µM for the second. The second is the more potent here.

`CCCS(=O)(=O)Nc1nc2ccccc2nc1OC(c1ccc(Cl)nc1)C(F)(F)F` (stereo not shown) [Compound 278, N-{3-[1-(6-chloropyridin-3-yl)-2,2,2-trifluoroethoxy]-quinoxalin-2-yl}propane-1-sulfonamide] and `CCCS(=O)(=O)Nc1nc2ccccc2nc1O[C@H](c1ccc(C)nc1)C(F)(F)F` [Compound 319, (R)—N-{3-[2,2,2-trifluoro-1-(6-methylpyridin-3-yl)ethoxy]-quinoxalin-2-yl}propane-1-sulfonamide] cannot be ordered by IC50: less than 1 µM for the first, less than 1 µM for the second.

`CCCNS(=O)(=O)Nc1nc2ccccc2nc1OC(c1ccc(C)nc1)C(F)(F)F` (stereo not shown) [Compound 280, N-{3-[2,2,2-trifluoro-1-(6-methylpyridin-3-yl)ethoxy]-quinoxalin-2-yl}-N′-propyl-sulfuric diamide] and `CCCNS(=O)(=O)Nc1nc2ccccc2nc1OC(c1ccc(Cl)nc1)C(F)(F)F` (stereo not shown) [Compound 283, N-{3-[1-(6-chloropyridin-3-yl)-2,2,2-trifluoroethoxy]-quinoxalin-2-yl}-N′-propyl-sulfuric diamide] cannot be ordered by IC50: less than 1 µM for the first, less than 1 µM for the second.

First: CCCNS(=O)(=O)Nc1nc2ccccc2nc1OC(c1ccc(C)[n+]([O-])c1)C(F)(F)F (stereo not shown) [Compound 284, 2-methyl-5-{2,2,2-trifluoro-1-[3-(N-propylsulfamoylamino)-quinoxalin-2-yloxy]ethyl}pyridine 1-oxide]
Second: Cc1ccc(C(Oc2nc3ccccc3nc2NS(=O)(=O)NC2CC2)C(F)(F)F)c[n+]1[O-] (stereo not shown) [Compound 289, 5-{1-[3-(N-cyclopropylsulfamoylamino)quinoxalin-2-yloxy]-2,2,2-trifluoroethyl}-2-methylpyridine 1-oxide]
The IC50 of the first is lower: less than 1 µM for the first, 1 to 10 µM for the second. The first is the more potent here.

`Cc1ccc(C(Oc2nc3ccccc3nc2NS(=O)(=O)NC2CC2)C(F)(F)F)cn1` (stereo not shown) [Compound 285, N-{3-[2,2,2-trifluoro-1-(6-methylpyridin-3-yl)ethoxy]-quinoxalin-2-yl}-N′-cyclopropyl-sulfuric diamide] and `O=S(=O)(Nc1nc2ccccc2nc1OC(c1ccc(Cl)nc1)C(F)(F)F)NC1CC1` (stereo not shown) [Compound 288, N-{3-[1-(6-chloropyridin-3-yl)-2,2,2-trifluoroethoxy]-quinoxalin-2-yl}-N′-cyclopropyl-sulfuric diamide] cannot be ordered by IC50: less than 1 µM for the first, less than 1 µM for the second.

Compared with `O=S(=O)(Nc1nc2ccccc2nc1OC(c1cncs1)C(F)(F)F)NC1CC1` (stereo not shown) [Compound 286, N-{3-[2,2,2-trifluoro-1-(thiazol-5-yl)ethoxy]quinoxalin-2-yl}-N′-cyclopropyl-sulfuric diamide], `Cn1cncc1C(Oc1nc2ccccc2nc1NS(=O)(=O)NC1CC1)C(F)(F)F` (stereo not shown) [Compound 287, N-{3-[2,2,2-trifluoro-1-(1-methyl-1H-imidazol-5-yl)ethoxy]-quinoxalin-2-yl}-N′-cyclopropyl-sulfuric diamide] is higher in IC50: less than 1 µM for the first, 1 to 10 µM for the second. The first is the more potent here.

`CCCS(=O)(=O)Nc1nc2ccccc2nc1OC(c1cccc(C#N)c1)C(F)(F)F` (stereo not shown) [Compound 290, N-{3-[1-(3-cyanophenyl)-2,2,2-trifluoroethoxy]quinoxalin-2-yl}propane-1-sulfonamide] and `CCCNS(=O)(=O)Nc1nc2ccccc2nc1OC(c1cccc(C#N)c1)C(F)(F)F` (stereo not shown) [Compound 291, N-{3-[1-(3-cyanophenyl)-2,2,2-trifluoroethoxy]quinoxalin-2-yl}-N′-propyl-sulfuric diamide] cannot be ordered by IC50: less than 1 µM for the first, less than 1 µM for the second.

`CCCNS(=O)(=O)Nc1nc2ccccc2nc1OC(c1ccc(C#N)cc1)C(F)(F)F` (stereo not shown) [Compound 292, N-{3-[1-(4-cyanophenyl)-2,2,2-trifluoroethoxy]quinoxalin-2-yl}-N′-propyl-sulfuric diamide] and `CCCS(=O)(=O)Nc1nc2ccccc2nc1OC(c1ccc(Cl)cc1)C(F)(F)F` (stereo not shown) [Compound 302, N-{3-[1-(4-chlorophenyl)-2,2,2-trifluoroethoxy]quinoxalin-2-yl}propane-1-sulfonamide] cannot be ordered by IC50: less than 1 µM for the first, less than 1 µM for the second.

`N#Cc1cccc(C(Oc2nc3ccccc3nc2NS(=O)(=O)NC2CC2)C(F)(F)F)c1` (stereo not shown) [Compound 293, N-{3-[1-(3-cyanophenyl)-2,2,2-trifluoroethoxy]quinoxalin-2-yl}-N′-cyclopropyl-sulfuric diamide] and `N#Cc1cccc(C(Oc2nc3ccccc3nc2NS(=O)(=O)CC2CC2)C(F)(F)F)c1` (stereo not shown) [Compound 309, 1-cyclopropyl-N-{3-[1-(3-cyanophenyl)-2,2,2-trifluoroethoxy]quinoxalin-2-yl}methanesulfonamide] cannot be ordered by IC50: less than 1 µM for the first, less than 1 µM for the second.

`O=S(=O)(Nc1nc2ccccc2nc1OC(C1CCOCC1)C(F)(F)F)NC1CC1` (stereo not shown) [Compound 299, N-{3-[2,2,2-trifluoro-1-(tetrahydro-2H-pyran-4-yl)ethoxy]-quinoxalin-2-yl}-N′-cyclopropyl-sulfuric diamide] and `O=S(=O)(Nc1nc2ccccc2nc1O[C@H](c1cccnc1)C(F)(F)F)NC1CC1` [Compound 317, (R)—N-cyclopropyl-N′-{3-[2,2,2-trifluoro-1-(pyridin-3-yl)-ethoxy]quinoxalin-2-yl}sulfuric diamide] cannot be ordered by IC50: less than 1 µM for the first, less than 1 µM for the second.

`COCCS(=O)(=O)Nc1nc2ccccc2nc1OC(c1cccnc1)C(F)(F)F` (stereo not shown) [Compound 300, 2-methoxy-N-{3-[2,2,2-trifluoro-1-(pyridin-3-yl)ethoxy]-quinoxalin-2-yl}ethanesulfonamide] and `COCCCS(=O)(=O)Nc1nc2ccccc2nc1OC(c1cccnc1)C(F)(F)F` (stereo not shown) [Compound 301, 3-methoxy-N-{3-[2,2,2-trifluoro-1-(pyridin-3-yl)ethoxy]-quinoxalin-2-yl}propane-1-sulfonamide] cannot be ordered by IC50: less than 1 µM for the first, less than 1 µM for the second.

`O=S(=O)(CC1CC1)Nc1nc2ccccc2nc1OC(c1cccnc1)C(F)(F)F` (stereo not shown) [Compound 303, 1-cyclopropyl-N-{3-[2,2,2-trifluoro-1-(pyridin-3-yl)-ethoxy]quinoxalin-2-yl}methanesulfonamide] and `O=S(=O)(CC1CC1)Nc1nc2ccccc2nc1O[C@H](c1cccnc1)C(F)(F)F` [Compound 307, (R)-1-cyclopropyl-N-{3-[2,2,2-trifluoro-1-(pyridin-3-yl)-ethoxy]quinoxalin-2-yl}methanesulfonamide] cannot be ordered by IC50: less than 1 µM for the first, less than 1 µM for the second.

`C=CCS(=O)(=O)Nc1nc2ccccc2nc1OC(c1cccnc1)C(F)(F)F` (stereo not shown) [Compound 304, N-{3-[2,2,2-trifluoro-1-(pyridin-3-yl)ethoxy]quinoxalin-2-yl}-2-propene-1-sulfonamide] and `CCCS(=O)(=O)Nc1nc2ccccc2nc1O[C@H](c1cccnc1)C(F)(F)F` [Compound 312, (R)—N-{3-[2,2,2-trifluoro-1-(pyridin-3-yl)ethoxy]-quinoxalin-2-yl}propane-1-sulfonamide] cannot be ordered by IC50: less than 1 µM for the first, less than 1 µM for the second.

`Cc1ccc(C(Oc2nc3ccccc3nc2NS(=O)(=O)CC2CC2)C(F)(F)F)cn1` (stereo not shown) [Compound 305, 1-cyclopropyl-N-{3-[2,2,2-trifluoro-1-(6-methylpyridin-3-yl)ethoxy]quinoxalin-2-yl}methanesulfonamide] and `O=S(=O)(CC1CC1)Nc1nc2ccccc2nc1OC(c1ccc(Cl)nc1)C(F)(F)F` (stereo not shown) [Compound 308, 1-cyclopropyl-N-{3-[1-(6-chloropyridin-3-yl)-2,2,2-trifluoroethoxy]quinoxalin-2-yl}methanesulfonamide] cannot be ordered by IC50: less than 1 µM for the first, less than 1 µM for the second.

`Cc1ncc(C(Oc2nc3ccccc3nc2NS(=O)(=O)CC2CC2)C(F)(F)F)s1` (stereo not shown) [Compound 306, 1-cyclopropyl-N-{3-[2,2,2-trifluoro-1-(2-methylthiazol-5-yl)ethoxy]quinoxalin-2-yl}methanesulfonamide] and `CCCS(=O)(=O)Nc1nc2ccccc2nc1OC(c1cnc(C)s1)C(F)(F)F` (stereo not shown) [Compound 315, N-{3-[2,2,2-trifluoro-1-(2-methylthiazol-5-yl)ethoxy]-quinoxalin-2-yl}propane-1-sulfonamide] cannot be ordered by IC50: less than 1 µM for the first, less than 1 µM for the second.

Compared with `CCCS(=O)(=O)Nc1nc2ccccc2nc1O[C@@H](c1cccnc1)C(F)(F)F` [Compound 313, (S)—N-{3-[2,2,2-trifluoro-1-(pyridin-3-yl)ethoxy]-quinoxalin-2-yl}propane-1-sulfonamide], `CCCS(=O)(=O)Nc1nc2ccccc2nc1OC(C(F)(F)F)C(F)(F)F` [Compound 322, N-{3-[(1,1,1,3,3,3-hexafluoropropan-2-yl)oxy]quinoxalin-2-yl}propane-1-sulfonamide] is lower in IC50: 1 to 10 µM for the first, less than 1 µM for the second. The second is the more potent here.

With `O=S(=O)(Nc1nc2ccccc2nc1OC(C(F)(F)F)C(F)(F)F)c1ccccc1Cl` [Compound 321, 2-chloro-N-{3-[(1,1,1,3,3,3-hexafluoropropan-2-yl)oxy]-quinoxalin-2-yl}benzenesulfonamide] the IC50 was less than 1 µM.
